Laboratory results published in patent US20240018161A1, “MODULATORS OF CYSTIC FIBROSIS TRANSMEMBRANE CONDUCTANCE REGULATOR” (VERTEX PHARMACEUTICALS INCORPORATED, priority 2020, published 2024).
Where two headings read alike, the source gives them in different places.

Experiments:
[1] = 13-membered ring
[2] = target: T1, CFTR-mediated chloride transport in human intestinal epithelial enteroid cells (Homo sapiens, UniProt P13569); test: Membrane potential dye, Enteroid Assay A; type: cell-based; settings: for EC50: read-out: Ent. A EC50
T1 sequence (P13569 with tags, fused parts or gaps DEL508-508): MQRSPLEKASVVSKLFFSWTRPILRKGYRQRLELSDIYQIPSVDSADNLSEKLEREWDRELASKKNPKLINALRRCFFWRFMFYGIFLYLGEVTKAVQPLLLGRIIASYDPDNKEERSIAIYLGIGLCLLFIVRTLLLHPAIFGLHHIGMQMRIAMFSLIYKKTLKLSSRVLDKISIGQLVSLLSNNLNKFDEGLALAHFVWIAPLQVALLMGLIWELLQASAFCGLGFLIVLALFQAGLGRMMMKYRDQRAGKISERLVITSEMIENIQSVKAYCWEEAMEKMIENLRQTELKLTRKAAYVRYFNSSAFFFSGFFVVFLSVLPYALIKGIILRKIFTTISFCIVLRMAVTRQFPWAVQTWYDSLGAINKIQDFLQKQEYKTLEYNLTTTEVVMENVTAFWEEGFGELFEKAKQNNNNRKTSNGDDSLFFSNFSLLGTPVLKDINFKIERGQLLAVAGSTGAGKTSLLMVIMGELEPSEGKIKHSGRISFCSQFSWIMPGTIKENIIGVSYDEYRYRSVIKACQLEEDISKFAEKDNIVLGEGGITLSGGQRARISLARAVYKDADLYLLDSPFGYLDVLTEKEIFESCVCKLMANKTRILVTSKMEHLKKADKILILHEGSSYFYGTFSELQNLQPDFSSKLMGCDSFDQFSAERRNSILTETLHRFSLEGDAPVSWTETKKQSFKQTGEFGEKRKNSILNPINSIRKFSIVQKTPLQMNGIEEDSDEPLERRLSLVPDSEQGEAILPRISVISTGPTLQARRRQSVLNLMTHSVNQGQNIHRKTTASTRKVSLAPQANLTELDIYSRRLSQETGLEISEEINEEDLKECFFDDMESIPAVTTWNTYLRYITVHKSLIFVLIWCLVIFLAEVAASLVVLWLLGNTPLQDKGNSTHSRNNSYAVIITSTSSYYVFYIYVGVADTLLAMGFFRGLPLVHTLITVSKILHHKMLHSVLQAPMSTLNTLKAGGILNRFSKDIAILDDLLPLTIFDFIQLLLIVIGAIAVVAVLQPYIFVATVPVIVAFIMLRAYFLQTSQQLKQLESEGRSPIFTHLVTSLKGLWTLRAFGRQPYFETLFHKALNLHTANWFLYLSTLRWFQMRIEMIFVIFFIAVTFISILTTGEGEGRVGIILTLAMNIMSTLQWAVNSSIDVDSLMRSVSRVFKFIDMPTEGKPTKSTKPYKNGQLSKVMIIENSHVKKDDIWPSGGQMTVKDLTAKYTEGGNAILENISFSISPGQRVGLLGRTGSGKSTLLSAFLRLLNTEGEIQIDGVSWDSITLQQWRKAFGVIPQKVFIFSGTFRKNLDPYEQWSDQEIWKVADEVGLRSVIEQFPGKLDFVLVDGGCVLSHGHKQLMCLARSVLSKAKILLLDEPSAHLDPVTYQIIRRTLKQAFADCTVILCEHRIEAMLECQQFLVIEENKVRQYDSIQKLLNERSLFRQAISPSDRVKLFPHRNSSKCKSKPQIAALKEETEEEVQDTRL
In short: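 Membrane potential dye (20 μM methyl oxonol, with 30 μM CaCCinh-A01 and 30 μM Chicago Sky Blue) loaded 25 min at room temperature into ROCK-inhibitor-seeded human enteroid cells. Chloride-free stimulation buffer triggered transport, followed by 15 min fluorescence. % Activity relative to 3 μM/3 μM/300 nM triple-combination control.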

[3] = target: T1, CFTR-mediated chloride transport in human intestinal epithelial enteroid cells; test: Membrane potential dye, Enteroid Assay B; type: cell-based; settings: for EC50: read-out: Ent. B EC50
Method: Base medium (ADF+++) consisted of Advanced DMEM/Ham's F12, 2 mM Glutamax, 10 mM HEPES, […] penicillin/streptomycin.
Bath 1 Buffer consisted of 1 mM MgCl2, 160 mM NaCl, 4.5 mM KCl, 10 mM HEPES, 10 mM Glucose, 2 mM CaCl2.
Chloride Free Buffer consisted of 1 mM Magnesium Gluconate, 2 mM Calcium Gluconate, 4.5 mM Potassium Gluconate, 160 mM Sodium Gluconate, 10 mM HEPES, 10 mM Glucose.
Bath1 Dye Solution consisted of Bath 1 Buffer, 0.04% Pluronic F127, 20 μM Methyl Oxonol, 30 μM CaCCinh-A01, 30 μM Chicago Sky Blue.
Chloride Free Dye Solution consisted of Chloride Free Buffer, 0.04% Pluronic F127, 20 μM Methyl Oxonol, 30 μM CaCCinh-A01, 30 μM Chicago Sky Blue.
3. Enteroid Cell Harvesting and Seeding
Cells were recovered in cell recovery solution, collected by centrifugation at 650 rpm for 5 min at 4° C., resuspended in TryPLE and incubated for 5 min at 37° C. Cells were then collected by centrifugation at 650 rpm for 5 min at 4° C. and resuspended in IEMM containing 10 μM ROCK inhibitor (RI).
5. Membrane Potential Dye, Enteroid Assay B
Briefly, cells were washed 5 times in Bath 1 Buffer. Bath 1 Dye Solution was added and the cells were incubated for 25 min at room temperature. Following dye incubation, cells were washed 3 times in Chloride Free Dye Solution. Chloride transport was initiated by addition of Chloride Free Dye Stimulation Solution and the fluorescence signal was read for 15 min.

[4] = enteroid cells incubated with test compound 18-24 hours, acute 10 μM forskolin and 300 nM N-[2,4-bis(1,1-dimethylethyl)-5-hydroxyphenyl]-1,4-dihydro-4-oxoquinoline-3-carboxamide

Cc1cccc(C)c1-c1cc2nc(n1)NS(=O)(=O)c1cccc(c1)C(=O)N1C(c3cncc(N(C)C4CCC4)n3)CC[C@H](O2)[C@H]1CC(C)C (stereo partly drawn) showed a ring closure, yield after HPLC ([1]; from Cc1cccc(C)c1-c1cc(Cl)nc(NS(=O)(=O)c2cccc(C(=O)N3C(c4cncc(N(C)C5CCC5)n4)CC[C@H](O)[C@H]3CC(C)C)c2)n1, snar bond, NaH, DMF, 21.5 mM, 24.0 h) of 4% and a ring closure, yield after HPLC ([1]; from Cc1cccc(C)c1-c1cc(O[C@H]2CCC(c3cncc(N(C)C4CCC4)n3)N[C@@H]2CC(C)C)nc(NS(=O)(=O)c2cccc(C(=O)O)c2)n1, amide bond, CDMT/NMM, DMF, 16.6 mM, 48.0 h, 2 steps) of 31.6%.
In the case of Cc1cccc(C)c1-c1cc2nc(n1)NS(=O)(=O)c1cccc(c1)C(=O)N1CC(CCC1c1ccccc1)O2 (stereo not drawn), the ring closure, yield after HPLC ([1]; from Cc1cccc(C)c1-c1cc(OC2CCC(c3ccccc3)NC2)nc(NS(=O)(=O)c2cccc(C(=O)O)c2)n1, amide bond, HATU/DIEA, DMF, 156.0 mM, 25.0 °C, 0.083 h, 3 steps) is reported as 37% and the ring closure, yield after HPLC ([1]; from Cc1cccc(C)c1-c1cc(OC2CCC(c3ccccc3)NC2)nc(NS(=O)(=O)c2cccc(C(=O)Oc3c(F)c(F)c(F)c(F)c3F)c2)n1, amide bond, thermal (OPfp ester), NMP, 36.0 mM, 130.0 °C, 1.0 h, 4 steps) is reported as 7%.
Cc1cccc(C)c1-c1cc2nc(n1)NS(=O)(=O)c1cccc(c1)C(=O)N1CC(O2)C2CCCN(C)C2C1 (stereo not drawn) showed a ring closure, yield after HPLC ([1]; from Cc1cccc(C)c1-c1cc(OC2CNCC3C2CCCN3C)nc(NS(=O)(=O)c2cccc(C(=O)O)c2)n1, amide bond, HATU/DIEA, DMF, 27.2 mM, 25.0 °C, 0.67 h) of 10%.
For Cc1cccc(C)c1-c1cc2nc(n1)NS(=O)(=O)c1cccc(c1)C(=O)N1CC(O2)c2ccccc2C1CC(C)C (stereo not drawn), the ring closure, yield after HPLC ([1]; from Cc1cccc(C)c1-c1cc(OC2CNC(CC(C)C)c3ccccc32)nc(NS(=O)(=O)c2cccc(C(=O)O)c2)n1, amide bond, HATU/DIEA, DMF, 256.0 mM, 1.0 h) was 8%.
In the case of Cc1cccc(C)c1-c1cc2nc(n1)NS(=O)(=O)c1cccc(c1)C(=O)N1CC3CCCN(C)C3C(C1)O2 (stereo not drawn), the ring closure, yield after HPLC ([1]; from 3-[[4-(2,6-dimethylphenyl)-6-[(1-methyl-3,4,4a,5,6,7,8,8a-octahydro-2H-1,6-naphthyridin-8-yl)oxy]pyrimidin-2-yl]sulfamoyl]benzoic acid (Dihydrochloride salt), amide bond, HATU/DIEA, 25.0 °C) is reported as 19%.
Cc1cccc(C)c1-c1cc2nc(n1)NS(=O)(=O)c1cccc(c1)C(=O)N1CCCC(O2)C1CC(C)C (stereo not drawn) gave a ring closure, yield after HPLC ([1]; from Cc1cccc(C)c1-c1cc(Cl)nc(NS(=O)(=O)c2cccc(C(=O)N3CCCC(O)C3CC(C)C)c2)n1, snar bond, NaH, DMF, 17.2 mM, 25.0 °C, 40.0 h) of 17% and a ring closure, yield after HPLC ([1]; from Cc1cccc(C)c1-c1cc(Cl)nc(NS(=O)(=O)c2cccc(C(=O)N3CCCC(O)C3CC(C)C)c2)n1, snar bond, NaH, DMF, 18.3 mM, 25.0 °C, 24.0 h) of 24%.
With Cc1cccc(C)c1-c1cc2nc(n1)NS(=O)(=O)c1cccc(c1)C(=O)N1CCOC[C@@H]1C(Cc1ccccc1)O2 (stereo partly drawn) the ring closure, yield after HPLC ([1]; from Cc1cccc(C)c1-c1cc(OC(Cc2ccccc2)[C@H]2COCCN2)nc(NS(=O)(=O)c2cccc(C(=O)O)c2)n1, amide bond, HATU/DIEA, DMF, 61.0 mM, 25.0 °C, 1.5 h) was 74%.
Work on Cc1cccc(C)c1-c1cc2nc(n1)NS(=O)(=O)c1cccc(c1)C(=O)N1Cc3cc(C(C)(C)C)ccc3[C@H](O2)[C@H]1CC(C)(C)C yielded a ring closure, yield after HPLC ([1]; from Cc1cccc(C)c1-c1cc(O[C@H]2c3ccc(C(C)(C)C)cc3CN[C@@H]2CC(C)(C)C)nc(NS(=O)(=O)c2cccc(C(=O)O)c2)n1, amide bond, HATU/NaOtBu, DMF/THF, 0.25 h, 2 steps) of 3%.
With Cc1cccc(C)c1-c1cc2nc(n1)NS(=O)(=O)c1cccc(c1)C(=O)N1Cc3cc(C(F)(F)F)ccc3[C@@H](O2)[C@H]1CC(C)C the ring closure, yield after HPLC ([1]; from Cc1cccc(C)c1-c1cc(O[C@@H]2c3ccc(C(F)(F)F)cc3CN[C@@H]2CC(C)C)nc(NS(=O)(=O)c2cccc(C(=O)O)c2)n1, amide bond, HATU/NaOtBu, DMF/THF, 0.25 h, 3 steps) was 3%.
Work on Cc1cccc(C)c1-c1cc2nc(n1)NS(=O)(=O)c1cccc(c1)C(=O)N1Cc3cc(C(F)(F)F)ccc3[C@H](O2)[C@H]1CC(C)C yielded a ring closure, yield after HPLC ([1]; from Cc1cccc(C)c1-c1cc(O[C@H]2c3ccc(C(F)(F)F)cc3CN[C@@H]2CC(C)C)nc(NS(=O)(=O)c2cccc(C(=O)O)c2)n1, amide bond, HATU/NaOtBu, DMF/THF, 0.25 h, 3 steps) of 5%.
Compound Cc1cccc(C)c1-c1cc2nc(n1)NS(=O)(=O)c1cccc(c1)C(=O)N1Cc3ccncc3C(C1)O2 (stereo not drawn) has a ring closure, yield after HPLC ([1]; from Cc1cccc(C)c1-c1cc(OC2CNCc3ccncc32)nc(NS(=O)(=O)c2cccc(C(=O)O)c2)n1, amide bond, HATU/DIEA, DMF, 23.5 mM, 0.5 h, 2 steps) of 3%.
In the case of Cc1ccccc1-c1cc2nc(n1)NS(=O)(=O)c1cccc(c1)C(=O)N1Cc3ccccc3[C@H](O2)[C@H]1CC(C)C, the ring closure, yield after HPLC ([1]; from Cc1ccccc1-c1cc(O[C@H]2c3ccccc3CN[C@@H]2CC(C)C)nc(NS(=O)(=O)c2cccc(C(=O)O)c2)n1, amide bond, HATU/DIEA, DMF, 190.0 mM, 0.5 h, 3 steps) is reported as 18%.
Work on “12-(2,6-dimethylphenyl)-23-(2-methylpropyl)-15-oxa-8λ^6-thia-1,9,11,25-tetraazapentacyclo[14.7.1.13,7.110,14.017,22]hexacosa-3(26),4,6,10(25),11,13,17,19,21-nonaene-2,8,8-trione, major diastereomer” yielded a ring closure, yield after HPLC ([1]; amide bond, HATU/DIEA, DMF, 115.0 mM) of 53%.
In the case of Cc1cccc(C)c1-c1cc2nc(n1)NS(=O)(=O)c1cccc(c1)C(=O)N1CC(CC(c3ccccc3)C1)O2 (single isomer, unassigned; diastereomer 1), the ring closure, yield after HPLC ([1]; from 3-[[4-(2,6-dimethylphenyl)-6-[(5-phenyl-3-piperidyl)oxy]pyrimidin-2-yl]sulfamoyl]benzoic acid (hydrochloride salt), diastereomer 1, amide bond, HATU/DIEA, DMF, 37.8 mM, 25.0 °C, 3 steps) is reported as 1%.
In the case of Cc1cccc(C)c1-c1cc2nc(n1)NS(=O)(=O)c1cccc(c1)C(=O)N1CC(O2)C2CCCN(C)C2C1 (single isomer, unassigned; diastereomer 1), the ring closure, yield after HPLC ([1]; from Cc1cccc(C)c1-c1cc(OC2CNCC3C2CCCN3C)nc(NS(=O)(=O)c2cccc(C(=O)O)c2)n1, amide bond, HATU/DIEA, DMF, 20.5 mM, 25.0 °C, 1.0 h) is reported as 54%.
With Cc1cccc(C)c1-c1cc2nc(n1)NS(=O)(=O)c1cccc(c1)C(=O)N1CCN(C(C)C(C)(C)C)C[C@H](C1)O2 (single isomer, unassigned; diastereomer 1) the ring closure, yield after HPLC ([1]; from Cc1cccc(C)c1-c1cc(Cl)nc(NS(=O)(=O)c2cccc(C(=O)N3CCN(C(C)C(C)(C)C)C[C@@H](O)C3)c2)n1, snar bond, NaH, DMF, 31.4 mM, 0.0 °C, 7.0 h) was 36%.
Cc1cccc(C)c1-c1cc2nc(n1)NS(=O)(=O)c1cccc(c1)C(=O)N1CC(CC(c3ccccc3)C1)O2 (single isomer, unassigned; diastereomer 2) showed a ring closure, yield after HPLC ([1]; from 3-[[4-(2,6-dimethylphenyl)-6-[(5-phenyl-3-piperidyl)oxy]pyrimidin-2-yl]sulfamoyl]benzoic acid (hydrochloride salt), diastereomer 2, amide bond, HATU/DIEA, DMF, 61.9 mM, 25.0 °C, 3 steps) of 31%.
With Cc1cccc(C)c1-c1cc2nc(n1)NS(=N)(=O)c1cccc(c1)C(=O)N1CCN(CCC(C)(C)C)CC(C1)O2 (stereo not drawn) [Compound 243, 18-(3,3-Dimethylbutyl)-12-(2,6-dimethylphenyl)-8-imino-15-oxa-8λ^6-thia-1,9,11,18,22-pentaazatetracyclo[14.4.1.13,7.110,14]tricosa-3,5,7(23),10,12,14(22)-hexaene-2,8-dione] the “Ent. A Max Activity (%)” value ([2]; Enteroid Assay A) was “+++ (+++ is >600%)”, the EC50 ([2]; Enteroid Assay A) was less than 1 µM and the “Ent. B Max Activity (%)” value ([3]; Enteroid Assay B) was “+++ (+++ is >600%)”. It also gave an EC50 ([3]; Enteroid Assay B) of less than 1 µM.
With Cc1cccc(C)c1-c1cc2nc(n1)NS(=N)(=O)c1cccc(c1)C(=O)N1CCN(Cc3ccccc3)CC(C1)O2 (stereo not drawn) [Compound 248] the “Ent. A Max Activity (%)” value ([2]; Enteroid Assay A) was “++ (++ is 30-60%)”, the EC50 ([2]; Enteroid Assay A) was 1 to 3 µM and the “Ent. B Max Activity (%)” value ([3]; Enteroid Assay B) was “+++ (+++ is >600%)”. It also gave an EC50 ([3]; Enteroid Assay B) of less than 1 µM.
For Cc1cccc(C)c1-c1cc2nc(n1)NS(=O)(=O)c1cccc(c1)C(=O)N1CCN(CCC(C)(C)C)C[C@@H]1CO2 [Compound 298], the EC50 [2, 4] was less than 1 µM, the “Ent. A Max Activity (%)” value ([2]; percentage of chloride transport of triple combination control (3 μM N-[(6-amino-2-pyridyl)sulfonyl]-6-(3-fluoro-5-isobutoxy-phenyl)-2-[(4S)-2,2,4-trimethylpyrrolidin-1-yl]pyridine-3-carboxamide based)) was “+++ (+++ is >60%)” and the EC50 [3, 4] was less than 1 µM. For the same compound, the “Ent. B Max Activity (%)” value ([3]; percentage of chloride transport of triple combination control (1 μM (14S)-8-[3-(2-{Dispiro[2.0.2.1]heptan-7-yl}ethoxy)-1H-pyrazol-1-yl]-... trione based)) was “+++ (+++ is >60%)”.
With Cc1cccc(C)c1-c1cc2nc(n1)NS(=O)(=O)c1cncc(c1)C(=O)N1Cc3cc(C(C)(C)C)ccc3[C@H](O2)[C@H]1CC(C)C [Compound 331] the “Ent. A Max Activity (%)” value ([2]; Enteroid Assay A) was “+++ (+++ is >600%)”, the EC50 ([2]; Enteroid Assay A) was less than 1 µM and the “Ent. B Max Activity (%)” value ([3]; Enteroid Assay B) was “+++ (+++ is >600%)”. For the same compound, the EC50 ([3]; Enteroid Assay B) was less than 1 µM.
